Test results taken from patent US9856216B2, “Compounds as TNIK, IKKε and TBK1 inhibitors and pharmaceutical composition comprising same” (GREEN CROSS CORPORATION, priority 2015, dated 2018).

Biological target: T1, TNIK (Homo sapiens, UniProt Q9UKE5)
T1 construct: purchased Promega V4158
Assay: ADP-Glo Kinase Assay, inhibition activity on TNIK
Assay type: biochemical
Details: not given
Experimental: The inhibition activities on TNIK, IKKε and TBK1 were measured by a luminometer, TNIK/IKKε/TBK1 Kinase Enzyme System (Promega, Ca# V4158; Invitrogen, PR8031B, Promega, Ca# V3991) and ADP-Glo Kinase Assay using ADP-Glo™ Kinase Analysis Kit (Promega, Ca# V9101) and a kinase reaction buffer [40 mM Tris(pH 7.5), 20 mM MgCl2, 0.1 mg/mL BSA] in accordance with the manufacturer's protocol.

T1 sequence (Q9UKE5 1-367 limits assumed): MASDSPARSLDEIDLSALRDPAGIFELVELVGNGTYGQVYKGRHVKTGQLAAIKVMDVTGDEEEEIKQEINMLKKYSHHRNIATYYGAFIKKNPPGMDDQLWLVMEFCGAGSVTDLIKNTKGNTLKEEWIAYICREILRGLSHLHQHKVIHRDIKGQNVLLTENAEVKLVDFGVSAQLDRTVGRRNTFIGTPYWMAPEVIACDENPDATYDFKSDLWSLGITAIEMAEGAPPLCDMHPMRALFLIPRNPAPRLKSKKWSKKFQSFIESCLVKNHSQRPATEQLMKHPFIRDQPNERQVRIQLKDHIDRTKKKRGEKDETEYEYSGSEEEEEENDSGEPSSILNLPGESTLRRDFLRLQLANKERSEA

TNIK (μM) | SMILES
Insoluble | O=C(Nc1ccc(-c2ccccc2)c2c1C(=O)NC2)c1ccc(Cl)c(Cl)c1 [Example 104, 3,4-Dichloro-N-(3-oxo-7-phenylisoindolin-4-yl)benzamide]
Insoluble | O=C(Nc1ccc(-c2ccccc2)c2c1C(=O)NC2)c1ccc([N+](=O)[O-])cc1 [Example 119, 4-Nitro-N-(3-oxo-7-phenylisoindolin-4-yl)benzamide]
Insoluble | O=C(Nc1ccc(-c2cccc(O)c2O)c2c1C(=O)NC2)c1ccc(F)cc1 [Example 189, N-(7-(2,3-dihydroxyphenyl)-3-oxoisoindolin-4-yl)-4-fluorobenzamide]

Same assay, conditions: read-out: TNIK

SMILES | IC50
COCCNc1ccc(C(=O)Nc2ccc(-c3ccccc3OC)c3c2C(=O)NC3)cc1 [Example 324, 4-((2-Methoxyethyl)amino)-N-(7-(2-methoxyphenyl)-3-oxoisoindolin-4-yl)benzamide] | 0.3 µM
O=C(Nc1ccc(Sc2ccccc2)c2c1C(=O)NC2)c1ccccc1 [Example 407, N-(3-oxo-7-(phenylthio)isoindolin-4-yl)benzamide] | 2.3 µM
CCc1cccc(-c2ccc(NC(=O)c3ccccc3)c3c2CNC3=O)c1 [Example 42, N-(7-(3-ethylphenyl)-3-oxoisoindolin-4-yl)benzamide] | 3.7 µM
O=C(Nc1ccc(-c2ccsc2)c2c1C(=O)NC2)c1ccccc1 [Example 146, N-(3-oxo-7-(thiophen-3-yl)isoindolin-4-yl)benzamide] | > 20 µM
O=C1NCc2c(-c3ccccc3)ccc(NCCN3CCCCC3)c21 [Example 259, 4-Phenyl-7-((2-(piperidin-1-yl)ethyl)amino)isoindolin-1-one] | > 20 µM
O=C(Nc1ccc(-c2ccc(CN3CCCC3)s2)c2c1C(=O)NC2)c1ccccc1 [Example 195, N-(3-oxo-7-(5-(pyrrolidin-1-ylmethyl)thiophen-2-yl)isoindolin-4-yl)benzamide] | > 20 µM
COc1ccc(-c2ccc(NC(=O)c3ccc(NC(C)=O)cc3)c3c2CNC3=O)cc1 [Example 120, 4-Acetamido-N-(7-(4-methoxyphenyl)-3-oxoisoindolin-4-yl) benzamide] | > 20 µM
CC(C)Oc1ccc(-c2ccc(NC(=O)c3ccccc3)c3c2CNC3=O)cc1 [Example 40, N-(7-(4-isopropoxyphenyl)-3-oxoisoindolin-4-yl)benzamide] | > 20 µM
O=C(Nc1ccc(Nc2ccccc2)c2c1C(=O)NC2)c1ccc(NCCCN2CCOCC2)cc1 [Example 461, 4-((3-Morpholinopropyl)amino)-N-(3-oxo-7-(phenylamino)isoindolin-4-yl)benzamide] | 0.38 µM
COc1ccccc1-c1ccc(NC(=O)c2ccc(NCCN3CCCC3)cc2)c2c1CCNC2=O [Example 402, N-(5-(2-methoxyphenyl)-1-oxo-1,2,3,4-tetrahydroisoquinolin-8-yl)-4-((2-(pyrrolidin-1-yl)ethyl)amino)benzamide] | 2.38 µM
O=C(Nc1ccc(-c2ncn[nH]2)c2c1C(=O)NC2)c1ccccc1 [Example 58, N-(3-oxo-7-(1H-1,2,4-triazol-5-yl)isoindolin-4-yl)benzamide] | 2.67 µM
O=C(Nc1cccc(F)c1)Nc1ccc(-c2ccccc2)c2c1C(=O)NC2 [Example 240, 1-(3-Fluorophenyl)-3-(3-oxo-7-phenylisoindolin-4-yl)urea] | 2.4 µM
O=C(Nc1ccc(-c2nccs2)c2c1C(=O)NC2)c1ccccc1 [Example 53, N-(3-oxo-7-(thiazol-2-yl)isoindolin-4-yl)benzamide] | 2.34 µM
COc1cccc(-c2ccc(NC(=O)c3ccco3)c3c2CN(C(=O)c2ccco2)C3=O)c1OC [Example 224, N-(7-(2,3-dimethoxyphenyl)-2-(furan-2-carbonyl)-3-oxoisoindolin-4-yl)furan-2-carboxamide] | 1 µM
O=C(Nc1ccc(Nc2ccccc2)c2c1C(=O)NC2)c1ccc(NCCCN2CCCC2)cc1 [Example 462, N-(3-oxo-7-(phenylamino)isoindolin-4-yl)-4-((3-(pyrrolidin-1-yl)propyl)amino)benzamide] | 0.29 µM
O=C(Nc1ccc(-c2cccc3ncoc23)c2c1C(=O)NC2)c1ccc(NCCCN2CCCCC2)cc1 [Example 343, N-(7-(benzo[d]oxazol-7-yl)-3-oxoisoindolin-4-yl)-4-((3-(piperidin-1-yl)propyl)amino)benzamide] | 0.042 µM
O=C(Nc1ccc(-c2ccccc2O)c2c1C(=O)NC2)c1ccc(NCCCO)cc1 [Example 355] | 0.59 µM
COc1cccc(-c2ccc(NC(=O)c3ccccc3)c3c2CNC3=O)c1OC [Example 171, N-(7-(2,3-dimethoxyphenyl)-3-oxoisoindolin-4-yl)benzamide] | 0.057 µM
Cc1ccc(C(=O)Nc2ccc(-c3ccccc3)c3c2C(=O)NC3)c(C)c1 [Example 105, 2,4-Dimethyl-N-(3-oxo-7-phenylisoindolin-4-yl)benzamide] | > 20 µM
O=C(Nc1ccc(-c2ccccc2)c2c1C(=O)NC2)c1ccc(NCCO)cc1 [Example 380, 4-((2-Hydroxyethyl)amino)-N-(3-oxo-7-phenylisoindolin-4-yl) benzamide] | 0.23 µM

The next lines start with the values.

IC50 | SMILES
1.18 µM | COc1cccc(Nc2ccc(NC(=O)c3ccc(F)cc3)c3c2CNC3=O)c1OC [Example 422, N-(7-((2,3-dimethoxyphenyl)amino)-3-oxoisoindolin-4-yl)-4-fluorobenzamide]
> 20 µM | CS(=O)(=O)c1ccccc1-c1ccc(NC(=O)c2ccccc2)c2c1CNC2=O [Example 47, N-(7-(2-(methylsulfonyl)phenyl)-3-oxoisoindolin-4-yl) benzamide]
2.1 µM | Cc1ccc(NC(=O)Nc2ccc(-c3ccccc3)c3c2C(=O)NC3)cc1 [Example 232, 1-(3-Oxo-7-phenylisoindolin-4-yl)-3-(p-tolyl)urea]
> 20 µM | Cc1ccccc1NC(=O)Nc1ccc(-c2ccccc2)c2c1C(=O)NC2 [Example 238, 1-(3-Oxo-7-phenylisoindolin-4-yl)-3-(o-tolyl)urea]
9.5 µM | CC(=O)c1ccccc1-c1ccc(NC(=O)c2ccccc2)c2c1CNC2=O [Example 11, N-(7-(2-acetylphenyl)-3-oxoisoindolin-4-yl)benzamide]
4.2 µM | CC(=O)Nc1cccc(-c2ccc(NC(=O)c3ccccc3)c3c2CNC3=O)c1 [Example 169, N-(7-(3-acetamidophenyl)-3-oxoisoindolin-4-yl)benzamide]
1.8 µM | CCc1ccc(NC(=O)c2ccccc2)c2c1CNC2=O [Example 29, N-(7-ethyl-3-oxoisoindolin-4-yl)benzamide]
0.4 µM | CN(C)CCNc1ccc(C(=O)Nc2ccc(-c3cccs3)c3c2C(=O)NC3)cc1 [Example 373, 4-((2-(Dimethylamino)ethyl)amino)-N-(3-oxo-7-(thiophen-2-yl)isoindolin-4-yl)benzamide]
5.44 µM | CC(C)(O)c1ccc(NC(=O)c2ccc(NCCN3CCCC3)cc2)c2c1CNC2=O [Example 394, N-(7-(2-hydroxypropan-2-yl)-3-oxoisoindolin-4-yl)-4-((2-(pyrrolidin-1-yl)ethyl)amino)benzamide]
0.51 µM | COc1ccccc1-c1ccc(NC(=O)c2ccc(NCCCN3CCN(C)CC3)cc2)c2c1CNC2=O [Example 330, N-(7-(2-methoxyphenyl)-3-oxoisoindolin-4-yl)-4-((3-(4-methylpiperazin-1-yl)propyl)amino)benzamide]
0.54 µM | O=C(Nc1ccc(-c2cccc(F)c2F)c2c1C(=O)NC2)c1ccccc1 [Example 34, N-(7-(2,3-difluorophenyl)-3-oxoisoindolin-4-yl)benzamide]
1.1 µM | CNCCN(C)c1ccc(C(=O)Nc2ccc(-c3ccccc3)c3c2C(=O)NC3)cc1 [Example 358, 4-(Methyl(2-(methylamino)ethyl)amino)-N-(3-oxo-7-phenylisoindolin-4-yl)benzamide]
1.76 µM | O=C(Nc1ccc(Br)c2c1C(=O)NC2)c1ccc(NCCN2CCCC2)cc1 [Example 283, N-(7-bromo-3-oxoisoindolin-4-yl)-4-((2-(pyrrolidin-1-yl)ethyl)amino)benzamide]
0.28 µM | CN(C)CCNc1ccc(C(=O)Nc2ccc(-c3cccc(F)c3F)c3c2C(=O)NC3)cc1 [Example 367, N-(7-(2,3-difluorophenyl)-3-oxoisoindolin-4-yl)-4-((2-(dimethylamino)ethyl)amino)benzamide]
0.1 µM | CC(=O)NCCNc1ccc(C(=O)Nc2ccc(Nc3ccccc3)c3c2C(=O)NC3)cc1 [Example 485, 4-((2-Acetamidoethyl)amino)-N-(3-oxo-7-(phenylamino)isoindolin-4-yl)benzamide]
0.48 µM | O=C(Nc1ccc(-c2cccs2)c2c1C(=O)NC2)c1ccc(NCCN2CCCCC2)cc1 [Example 374, N-(3-oxo-7-(thiophen-2-yl)isoindolin-4-yl)-4-((2-(piperidin-1-yl)ethyl)amino)benzamide]
4.6 µM | O=C(Nc1ccc([N+](=O)[O-])cc1)Nc1ccc(-c2ccccc2)c2c1C(=O)NC2 [Example 235, 1-(4-Nitrophenyl)-3-(3-oxo-7-phenylisoindolin-4-yl)urea]
0.061 µM | O=C(Nc1ccc(-c2cccc3ncoc23)c2c1C(=O)NC2)c1ccc(NCCN2CCCCCC2)cc1 [Example 344, 4-((2-(Azepan-1-yl)ethyl)amino)-N-(7-(benzo[d]oxazol-7-yl)-3-oxoisoindolin-4-yl)benzamide]
> 20 µM | COc1cccc(C(=O)Nc2ccc(-c3ccccc3)c3c2C(=O)NC3)c1 [Example 202, 3-Methoxy-N-(3-oxo-7-phenylisoindolin-4-yl)benzamide]
0.62 µM | COc1cccc(Nc2ccc(NC(=O)c3ccc(NCCCN4CCCCC4)cc3)c3c2CNC3=O)c1 [Example 448]
0.94 µM | COc1cccc(Nc2ccc(NC(=O)c3ccccc3)c3c2CNC3=O)c1 [Example 431, N-(7-((3-methoxyphenyl)amino)-3-oxoisoindolin-4-yl) benzamide]
> 20 µM | O=C(Nc1ccc(-c2ccccc2)c2c1C(=O)NC2)c1ccc(Cl)cc1Cl [Example 103, 2,4-Dichloro-N-(3-oxo-7-phenylisoindolin-4-yl)benzamide]
